Measured values as given in patent publication US12569563B2, “Selective HDAC6 degraders and methods of use thereof” (DANA-FARBER CANCER INSTITUTE, INC., priority 2019, dated 2026).

Columns and labels:
Type in all cases: biochemical
[1] = target: T1, HDAC5 (Homo sapiens, UniProt Q9UQL6); experiment: HDAC assay from Reaction Biology, Class2A substrate; settings: 10-dose response curve; read-out: Compound IC50 HDAC5
T1 construct: purchased Reaction Biology
Experimental: (§1) Compounds 1 and 3 were tested in a HDAC assay from Reaction Biology® against 10 different HDACs.
(§2) Base Reaction buffer: 50 mM Tris-HCl, pH8.0, 137 mM NaCl, 2.7 mM KCl, and 1 mM MgCl2,
(§3) Add fresh: 1 mg/ml BSA, 1% DMSO
(§4) • (HDAC8 only substrate: 50 μM, Arg-His-Lys(Ac)-Lys(Ac))-AMC Class2A Substrate (HDAC4, HDAC5, HDAC7, and HDAC9): Boc-Lys(trifluoroacetyl)-AMC For SIRTs 1-3, general Class1 HDAC substrate and 500 μM NAD+ For SIRT5, Ac-Lys-succ and 500 μM NAD+ Reaction Procedure Deacetylation Step • 1. Delivered 2× enzyme in wells of reaction plate except in the control wells and added buffer to control wells. • 2. Delivered compounds in 100% DMSO into the enzyme mixture by Acoustic technology (Echo550; nanoliter range). Spin down and pre-incubation. • 3. Delivered 2× Substrate Mixture (Fluorogenic HDAC Substrate and co-factor if applicable) in all reaction wells to initiate the reaction. Spin and shake. • 4. Incubated for 30 min for Class 2A, 1 hr for HDAC1, 2, 3, and 6, and 2 hr for the rest of HDACs and SIRTs at 30° C. with seal. Development Step • 5. Added Developer with Trichostatin A (or Nicotinamide for SIRTs) to stop the reaction and to generate fluorescent color. • 6. The fluorescence that was generated was detected with excitation (Ex) at […] and emission (Em) at 460 nM by the EnVision Multilabel Plate Reader (PerkinElmer®, Santa Clara, CA, USA). • 7. […]

[2] = target: T2, HDAC6 (Homo sapiens, UniProt Q9UBN7); experiment: HDAC assay from Reaction Biology, fluorogenic substrate; design: purchased Reaction Biology; settings: 10-dose response curve; read-out: Compound IC50 HDAC6
T2 sequence (Q9UBN7 1-1215): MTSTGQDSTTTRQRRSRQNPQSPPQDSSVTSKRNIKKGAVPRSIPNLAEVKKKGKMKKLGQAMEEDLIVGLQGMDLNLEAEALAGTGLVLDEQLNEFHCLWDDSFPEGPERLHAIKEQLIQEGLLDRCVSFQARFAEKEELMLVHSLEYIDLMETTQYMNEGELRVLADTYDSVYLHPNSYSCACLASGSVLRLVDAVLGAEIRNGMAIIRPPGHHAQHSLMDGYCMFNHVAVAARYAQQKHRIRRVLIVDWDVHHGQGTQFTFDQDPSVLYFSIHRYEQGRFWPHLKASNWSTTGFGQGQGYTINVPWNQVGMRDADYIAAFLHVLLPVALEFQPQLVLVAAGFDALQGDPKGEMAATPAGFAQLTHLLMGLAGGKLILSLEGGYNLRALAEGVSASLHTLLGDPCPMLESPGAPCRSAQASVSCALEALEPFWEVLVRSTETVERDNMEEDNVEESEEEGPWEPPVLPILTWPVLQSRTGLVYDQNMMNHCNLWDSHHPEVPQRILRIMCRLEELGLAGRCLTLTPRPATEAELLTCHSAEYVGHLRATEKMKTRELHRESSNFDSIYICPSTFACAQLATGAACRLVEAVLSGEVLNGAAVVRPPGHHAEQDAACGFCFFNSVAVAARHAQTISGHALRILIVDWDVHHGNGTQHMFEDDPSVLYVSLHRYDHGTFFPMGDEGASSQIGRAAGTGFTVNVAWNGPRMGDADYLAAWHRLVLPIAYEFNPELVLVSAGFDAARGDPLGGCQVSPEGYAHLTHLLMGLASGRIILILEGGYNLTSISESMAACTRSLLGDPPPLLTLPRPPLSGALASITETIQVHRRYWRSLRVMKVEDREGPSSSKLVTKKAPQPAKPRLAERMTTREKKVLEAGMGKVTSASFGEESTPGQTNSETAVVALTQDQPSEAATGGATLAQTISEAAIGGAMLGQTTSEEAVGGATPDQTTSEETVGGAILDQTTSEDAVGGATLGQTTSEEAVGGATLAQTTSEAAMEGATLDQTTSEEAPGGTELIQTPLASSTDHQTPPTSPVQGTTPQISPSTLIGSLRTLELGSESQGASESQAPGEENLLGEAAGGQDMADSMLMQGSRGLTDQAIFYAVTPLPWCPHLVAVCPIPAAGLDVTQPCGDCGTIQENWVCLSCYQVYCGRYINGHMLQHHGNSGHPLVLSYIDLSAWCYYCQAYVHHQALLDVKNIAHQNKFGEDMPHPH
Experimental: as §1, §2, §3
(§5) Fluorogenic HDAC General Substrate (HDAC1, HDAC2, HDAC3, HDAC6, HDAC10, and HDAC11): 50 μM, Arg-His-Lys-Lys(Ac)-AMC
as §4, with “Added Developer with Trichostatin A (or Nicotinamide for SIRTs) to stop the reaction and to generate fluorescent color. • 6.” left out

[3] = target: T3, HDAC3 (Homo sapiens, UniProt O15379); experiment: as above; settings: 10-dose response curve; read-out: Compound IC50 HDAC3
T3 construct: purchased Reaction Biology
Experimental: as §1, §2, §3, §5
(§6) • (HDAC8 only substrate: 50 μM, Arg-His-Lys(Ac)-Lys(Ac))-AMC Class2A Substrate (HDAC4, HDAC5, HDAC7, and HDAC9): Boc-Lys(trifluoroacetyl)-AMC For SIRTs 1-3, general Class1 HDAC substrate and 500 μM NAD+ For SIRT5, Ac-Lys-succ and 500 μM NAD+ Reaction Procedure Deacetylation Step • 1. Delivered 2× enzyme in wells of reaction plate except in the control wells and added buffer to control wells. • 2. Delivered compounds in 100% DMSO into the enzyme mixture by Acoustic technology (Echo550; nanoliter range). Spin down and pre-incubation. • 3. Delivered 2× Substrate Mixture (Fluorogenic HDAC Substrate and co-factor if applicable) in all reaction wells to initiate the reaction. Spin and shake. • 4. Incubated for 30 min for Class 2A, 1 hr for HDAC1, 2, 3, and 6, and 2 hr for the rest of HDACs and SIRTs at 30° C. with seal. Development Step • 5. Added Developer with Trichostatin A (or Nicotinamide for SIRTs) to stop the reaction and to generate fluorescent color. • 6. The fluorescence that was generated was detected with excitation (Ex) at […] and emission (Em) at 460 nM by the EnVision Multilabel Plate Reader (PerkinElmer®, Santa Clara, CA, USA). • 7. IC50 values, presented in Table 1, were derived from a 10-dose response curve.

[4] = target: T4, HDAC1 (Homo sapiens, UniProt Q13547); experiment: as above; settings: 10-dose response curve; read-out: Compound IC50 HDAC1
T4 construct: purchased Reaction Biology
Experimental: as §1, §2, §3, §5, §6

[5] = target: T5, HDAC2 (Homo sapiens, UniProt Q92769); experiment: as above; settings: 10-dose response curve; read-out: Compound IC50 HDAC2
T5 construct: purchased Reaction Biology
Experimental: as §1, §2, §3, §5, §6

[6] = target: T6, HDAC8 (Homo sapiens, UniProt Q9BY41); experiment: HDAC assay from Reaction Biology, HDAC8 substrate; settings: 10-dose response curve; read-out: Compound IC50 HDAC8
T6 construct: purchased Reaction Biology
T6 sequence (Q9BY41 1-377): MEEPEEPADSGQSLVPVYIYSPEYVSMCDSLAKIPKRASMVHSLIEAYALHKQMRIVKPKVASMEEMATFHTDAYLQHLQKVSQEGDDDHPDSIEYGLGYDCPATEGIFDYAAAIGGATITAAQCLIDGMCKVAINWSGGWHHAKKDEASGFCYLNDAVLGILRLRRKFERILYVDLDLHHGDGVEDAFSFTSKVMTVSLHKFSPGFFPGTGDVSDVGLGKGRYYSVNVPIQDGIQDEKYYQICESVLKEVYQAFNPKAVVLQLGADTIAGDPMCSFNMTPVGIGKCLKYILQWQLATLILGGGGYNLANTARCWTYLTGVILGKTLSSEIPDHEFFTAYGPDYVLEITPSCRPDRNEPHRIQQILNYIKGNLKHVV
Experimental: as §1, §2, §3, §4

T1 sequence (Q9UQL6 whole entry): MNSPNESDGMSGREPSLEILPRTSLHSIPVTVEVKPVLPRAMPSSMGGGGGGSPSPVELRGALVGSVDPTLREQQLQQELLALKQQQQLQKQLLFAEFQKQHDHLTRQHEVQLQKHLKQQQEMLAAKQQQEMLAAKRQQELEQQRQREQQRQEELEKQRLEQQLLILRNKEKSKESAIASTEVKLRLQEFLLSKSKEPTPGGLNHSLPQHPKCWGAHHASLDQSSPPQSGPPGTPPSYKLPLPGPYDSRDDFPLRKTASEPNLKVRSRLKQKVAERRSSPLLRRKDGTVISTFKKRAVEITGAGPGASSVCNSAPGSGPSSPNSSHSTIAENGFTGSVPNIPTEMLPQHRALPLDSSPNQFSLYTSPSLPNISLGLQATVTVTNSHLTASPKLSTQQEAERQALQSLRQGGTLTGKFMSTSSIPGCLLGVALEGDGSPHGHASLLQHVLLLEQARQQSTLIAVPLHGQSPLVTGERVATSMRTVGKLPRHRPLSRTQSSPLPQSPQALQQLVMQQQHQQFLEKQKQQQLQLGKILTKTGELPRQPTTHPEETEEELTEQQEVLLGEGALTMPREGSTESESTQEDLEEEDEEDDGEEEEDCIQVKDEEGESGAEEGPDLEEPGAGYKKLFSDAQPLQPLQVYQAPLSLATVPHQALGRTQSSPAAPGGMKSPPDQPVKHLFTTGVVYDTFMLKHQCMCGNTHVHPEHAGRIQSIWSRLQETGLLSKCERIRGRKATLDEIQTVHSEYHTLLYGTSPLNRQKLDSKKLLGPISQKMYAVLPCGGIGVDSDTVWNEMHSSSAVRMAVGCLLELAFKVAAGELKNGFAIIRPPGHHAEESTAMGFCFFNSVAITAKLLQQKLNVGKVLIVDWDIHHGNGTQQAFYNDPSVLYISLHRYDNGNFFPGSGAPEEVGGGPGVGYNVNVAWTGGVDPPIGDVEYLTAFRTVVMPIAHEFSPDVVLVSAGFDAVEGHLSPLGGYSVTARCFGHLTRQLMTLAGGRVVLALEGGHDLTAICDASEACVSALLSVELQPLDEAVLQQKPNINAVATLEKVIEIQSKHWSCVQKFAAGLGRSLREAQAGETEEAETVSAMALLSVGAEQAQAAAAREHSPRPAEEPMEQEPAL
T3 sequence (O15379 whole entry): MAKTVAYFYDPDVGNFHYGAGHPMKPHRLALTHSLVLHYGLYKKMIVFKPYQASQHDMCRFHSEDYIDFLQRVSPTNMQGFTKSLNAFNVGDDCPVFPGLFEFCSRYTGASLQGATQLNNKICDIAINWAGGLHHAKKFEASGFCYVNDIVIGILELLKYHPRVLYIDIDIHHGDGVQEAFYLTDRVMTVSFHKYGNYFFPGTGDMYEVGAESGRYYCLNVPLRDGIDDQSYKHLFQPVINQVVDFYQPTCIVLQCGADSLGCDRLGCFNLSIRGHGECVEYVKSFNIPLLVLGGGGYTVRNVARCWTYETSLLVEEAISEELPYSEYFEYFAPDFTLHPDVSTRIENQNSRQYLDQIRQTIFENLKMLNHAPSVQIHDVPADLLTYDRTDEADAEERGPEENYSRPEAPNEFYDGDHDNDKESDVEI
T3 sequence (Q9Y618 395-489 partner limits assumed): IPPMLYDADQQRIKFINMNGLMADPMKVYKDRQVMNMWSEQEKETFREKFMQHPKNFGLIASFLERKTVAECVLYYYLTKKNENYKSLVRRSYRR
T4 sequence (Q13547 whole entry): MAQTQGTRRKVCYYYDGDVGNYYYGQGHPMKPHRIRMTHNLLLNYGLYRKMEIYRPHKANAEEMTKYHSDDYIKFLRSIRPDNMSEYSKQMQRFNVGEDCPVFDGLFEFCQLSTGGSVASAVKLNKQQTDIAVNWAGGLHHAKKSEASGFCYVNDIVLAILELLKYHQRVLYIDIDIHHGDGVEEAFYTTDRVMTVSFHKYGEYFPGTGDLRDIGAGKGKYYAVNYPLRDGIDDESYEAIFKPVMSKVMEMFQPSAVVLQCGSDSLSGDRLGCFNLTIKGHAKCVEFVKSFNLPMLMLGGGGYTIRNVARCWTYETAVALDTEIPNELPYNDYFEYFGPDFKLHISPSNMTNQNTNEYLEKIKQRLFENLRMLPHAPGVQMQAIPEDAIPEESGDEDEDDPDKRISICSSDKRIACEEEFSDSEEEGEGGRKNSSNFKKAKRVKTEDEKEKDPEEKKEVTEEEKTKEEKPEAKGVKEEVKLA
T5 sequence (Q92769 whole entry): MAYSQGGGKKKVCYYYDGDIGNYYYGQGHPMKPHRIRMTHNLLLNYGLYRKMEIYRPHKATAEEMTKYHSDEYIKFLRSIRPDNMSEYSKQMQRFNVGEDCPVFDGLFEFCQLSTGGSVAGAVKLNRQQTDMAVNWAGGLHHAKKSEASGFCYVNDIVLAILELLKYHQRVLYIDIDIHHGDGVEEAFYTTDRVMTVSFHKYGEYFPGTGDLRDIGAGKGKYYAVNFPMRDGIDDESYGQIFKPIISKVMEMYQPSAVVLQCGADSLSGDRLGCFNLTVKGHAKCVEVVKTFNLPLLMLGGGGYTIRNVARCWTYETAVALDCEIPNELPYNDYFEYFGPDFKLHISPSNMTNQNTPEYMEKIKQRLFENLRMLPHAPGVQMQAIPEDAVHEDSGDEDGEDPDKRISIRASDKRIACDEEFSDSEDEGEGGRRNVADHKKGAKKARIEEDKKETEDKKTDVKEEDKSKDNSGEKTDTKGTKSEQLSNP

| IC50 [1] | IC50 [2] | IC50 [3] | IC50 [4] | IC50 [5] | IC50 [6] | Structure (SMILES) |
| --- | --- | --- | --- | --- | --- | --- |
| 5750 nM | 48.5 nM | 1440 nM | 1040 nM | 2470 nM | 621 nM | CN(C(=O)CCCNc1cccc2c1C(=O)N(C1CCC(=O)NC1=O)C2=O)c1ccc(NC(=O)CCCCCCC(=O)NO)cc1 (stereo not drawn) [Compound 1, N^1-(4-(4-((2-(2,6-dioxopiperidin-3-yl)-1,3-dioxoisoindolin-4-yl)amino)-N-methylbutanamido)phenyl)-N^8-hydroxyoctanediamide] |
| 7830 nM | 40.1 nM | 3430 nM | 4410 nM | 14400 nM | 400 nM | CN(C(=O)CCCCCCCNc1cccc2c1C(=O)N(C1CCC(=O)NC1=O)C2=O)c1ccc(NC(=O)CCCCCCC(=O)NO)cc1 (stereo not drawn) [Compound 3, N^1-(4-(8-((2-(2,6-dioxopiperidin-3-yl)-1,3-dioxoisoindolin-4-yl)amino)-N-methyloctanamido)phenyl)-N^8-hydroxyoctanediamide] |
